Source: patent US11389447B2 (Janssen Sciences Ireland Unlimited Company, priority 2006, dated 2022)
Read-outs that look alike come from different tables or passages of the source.

Assay: Kinetic study: plasma kinetics of TMC278 after single IM or SC injection of a nanosuspension;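 further: healthy male beagle dogs injected in both biceps femoris muscles (IM) or both thoracal sides (SC), total volume 0.2 mL/kg, drug measured in plasma from blood samples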
Assay type: in vivo, male beagle dogs
Settings: 5 mg/kg; for AUC(0-t) / Cmax / Tmax / concentration at 0 h / concentration at 1 h / concentration at 3 h / concentration at 8 h / concentration at 24 h / concentration at 48 h / concentration at 72 h / concentration at 144 h / concentration at 192 h / concentration at 240 h / concentration at 312 h / concentration at 384 h / concentration at 480 h / concentration at 648 h / concentration at 696 h / concentration at 864 h / concentration at 1032 h / concentration at 1200 h / concentration at 1368 h / concentration at 1536 h / concentration at 1704 h / concentration at 1872 h / concentration at 2040 h / concentration at 2208 h: male, beagle, dog, plasma; for AUC(0-t) / Cmax / Tmax: im, single IM 5 mg/kg TMC278 nanosuspension; for Cmax: read-out: Cmax; for Tmax: read-out: Tmax; for concentration at 0 h / concentration at 1 h / concentration at 3 h / concentration at 8 h / concentration at 24 h / concentration at 48 h / concentration at 72 h / concentration at 144 h / concentration at 192 h / concentration at 240 h / concentration at 312 h / concentration at 384 h / concentration at 480 h / concentration at 648 h / concentration at 696 h / concentration at 864 h / concentration at 1032 h / concentration at 1200 h / concentration at 1368 h / concentration at 1536 h / concentration at 1704 h / concentration at 1872 h / concentration at 2040 h / concentration at 2208 h: intramuscular, plasma concentration of TMC278, single IM 5 mg/kg TMC278 nanosuspension
Experimental: Six healthy male beagle dogs with body weights ranging from 8 to 16 kg at the start of the study, were used. Each dog was identified by an ear tattoo number. Two dogs were dosed intramuscularly (IM) in the left and right m. biceps femoris (treatment group A). […] Two dogs were dosed subcutaneously (SC) in the left and right thoracal region. The injection volume was 2×0.1 ml/kg in all treatment groups. A 20 G needle was used.
Blood samples of 3 ml were taken from the left jugular vein from all dogs on day 0 at 0 h (predose), 20 min, 1 h, 3 h, 8 h and 24 h post-dose and further on days 2, 3, 6, 8, 10, 13, 16, 20, 23, 27, 29, 36, 43, 50, 57, 64, 71, 78, 85 and 92 at approximately 8 AM. Blood samples were placed on EDTA, EDTA Vacuette Greiner, Cat. No. 454086, Greiner Labortechnik N.V.). Within 2 h of blood sampling, samples were centrifuged at room temperature at about 1900×g for 10 minutes to allow plasma separation. Plasma was immediately transferred into a second tube and stored in the freezer within 2 hours after the start of centrifugation.

## Cc1cc(C=CC#N)cc(C)c1Nc1ccnc(Nc2ccc(C#N)cc2)n1 [TMC278, 4-[[4-[[4-(2-cyanoethenyl)-2,6-dimethylphenyl]amino]-2-pyrimidinyl]amino]benzonitrile]
Injectable formulation of nanonised substance, male beagle dogs
  blood plasma levels after injection (in words): stable blood plasma levels during a prolonged period of time
Dog 17264, read-out: AUC0-312 h
  AUC(0-t): 27400 ng·h/mL
Dog 17264, read-out: AUC0-696 h
  AUC(0-t): 34800 ng·h/mL
Dog 17264, read-out: AUC0-2208 h
  AUC(0-t): 40500 ng·h/mL
Dog 17264
  Cmax: 159 ng/mL
  Tmax: 48 h
Dog 18186, read-out: AUC0-312 h
  AUC(0-t): 26600 ng·h/mL
Dog 18186, read-out: AUC0-696 h
  AUC(0-t): 33000 ng·h/mL
Dog 18186, read-out: AUC0-2208 h
  AUC(0-t): 38200 ng·h/mL
Dog 18186
  Cmax: 186 ng/mL
Mean of 2 dogs, read-out: AUC0-312 h
  AUC(0-t): 27000 ng·h/mL
Mean of 2 dogs, read-out: AUC0-696 h
  AUC(0-t): 33900 ng·h/mL
Mean of 2 dogs, read-out: AUC0-2208 h
  AUC(0-t): 39400 ng·h/mL
Mean of 2 dogs
  Cmax: 173 ng/mL
  Tmax: 24 h
Dog 17264, 0 h (d0, predose)
  concentration at 0 h: < 1 ng/mL
Dog 17264, 1 h
  concentration at 1 h: 110 ng/mL
Dog 17264, 3 h
  concentration at 3 h: 131 ng/mL
Dog 17264, 8 h
  concentration at 8 h: 130 ng/mL
Dog 17264, 24 h (d1)
  concentration at 24 h: 150 ng/mL
Dog 17264, 48 h (d2)
  concentration at 48 h: 159 ng/mL
Dog 17264, 72 h (d3)
  concentration at 72 h: 115 ng/mL
Dog 17264, 144 h (d6)
  concentration at 144 h: 86.2 ng/mL
Dog 17264, 192 h (d8)
  concentration at 192 h: 72.4 ng/mL
Dog 17264, 240 h (d10)
  concentration at 240 h: 56.7 ng/mL
Dog 17264, 312 h (d13)
  concentration at 312 h: 33.4 ng/mL
Dog 17264, 384 h (d16)
  concentration at 384 h: 23.9 ng/mL
Dog 17264, 480 h (d20)
  concentration at 480 h: 20.5 ng/mL
Dog 17264, 648 h (d27)
  concentration at 648 h: 11.4 ng/mL
Dog 17264, 696 h (d29)
  concentration at 696 h: 11.3 ng/mL
Dog 17264, 864 h (d36)
  concentration at 864 h: 7.33 ng/mL
Dog 17264, 1032 h (d43)
  concentration at 1032 h: 5.19 ng/mL
Dog 17264, 1200 h (d50)
  concentration at 1200 h: 3.4 ng/mL
Dog 17264, 1368 h (d57)
  concentration at 1368 h: 3 ng/mL
Dog 17264, 1536 h (d64)
  concentration at 1536 h: 2.84 ng/mL
Dog 17264, 1704 h (d71)
  concentration at 1704 h: 2.48 ng/mL
Dog 17264, 1872 h (d78)
  concentration at 1872 h: 1.79 ng/mL
Dog 17264, 2040 h (d85)
  concentration at 2040 h: 1.99 ng/mL
Dog 17264, 2208 h (d92)
  concentration at 2208 h: 1.56 ng/mL
Dog 18186, 0 h (d0, predose)
  concentration at 0 h: < 1 ng/mL
Dog 18186, 1 h
  concentration at 1 h: 82.6 ng/mL
Dog 18186, 3 h
  concentration at 3 h: 145 ng/mL
Dog 18186, 8 h
  concentration at 8 h: 136 ng/mL
Dog 18186, 24 h (d1)
  concentration at 24 h: 120 ng/mL
Dog 18186, 48 h (d2)
  concentration at 48 h: 132 ng/mL
Dog 18186, 72 h (d3)
  concentration at 72 h: 99.6 ng/mL
Dog 18186, 144 h (d6)
  concentration at 144 h: 91.9 ng/mL
Dog 18186, 192 h (d8)
  concentration at 192 h: 75.5 ng/mL
Dog 18186, 240 h (d10)
  concentration at 240 h: 62.5 ng/mL
Dog 18186, 312 h (d13)
  concentration at 312 h: 38 ng/mL
Dog 18186, 384 h (d16)
  concentration at 384 h: 20.6 ng/mL
Dog 18186, 480 h (d20)
  concentration at 480 h: 16.6 ng/mL
Dog 18186, 648 h (d27)
  concentration at 648 h: 9.08 ng/mL
Dog 18186, 696 h (d29)
  concentration at 696 h: 11.2 ng/mL
Dog 18186, 864 h (d36)
  concentration at 864 h: 6.44 ng/mL
Dog 18186, 1032 h (d43)
  concentration at 1032 h: 5.18 ng/mL
Dog 18186, 1200 h (d50)
  concentration at 1200 h: 3.25 ng/mL
Dog 18186, 1368 h (d57)
  concentration at 1368 h: 3 ng/mL
Dog 18186, 1536 h (d64)
  concentration at 1536 h: 2.44 ng/mL
Dog 18186, 1704 h (d71)
  concentration at 1704 h: 1.84 ng/mL
Dog 18186, 1872 h (d78)
  concentration at 1872 h: 1.45 ng/mL
Dog 18186, 2040 h (d85)
  concentration at 2040 h: 1.61 ng/mL
Dog 18186, 2208 h (d92)
  concentration at 2208 h: 1.25 ng/mL
Mean of 2 dogs, 0 h (d0, predose)
  concentration at 0 h: < 1 ng/mL
Mean of 2 dogs, 1 h
  concentration at 1 h: 96.3 ng/mL
Mean of 2 dogs, 3 h
  concentration at 3 h: 138 ng/mL
Mean of 2 dogs, 8 h
  concentration at 8 h: 133 ng/mL
Mean of 2 dogs, 24 h (d1)
  concentration at 24 h: 135 ng/mL
Mean of 2 dogs, 48 h (d2)
  concentration at 48 h: 146 ng/mL
Mean of 2 dogs, 72 h (d3)
  concentration at 72 h: 107 ng/mL
Mean of 2 dogs, 144 h (d6)
  concentration at 144 h: 89.1 ng/mL
Mean of 2 dogs, 192 h (d8)
  concentration at 192 h: 74 ng/mL
Mean of 2 dogs, 240 h (d10)
  concentration at 240 h: 59.6 ng/mL
Mean of 2 dogs, 312 h (d13)
  concentration at 312 h: 35.7 ng/mL
Mean of 2 dogs, 384 h (d16)
  concentration at 384 h: 22.3 ng/mL
Mean of 2 dogs, 480 h (d20)
  concentration at 480 h: 18.6 ng/mL
Mean of 2 dogs, 648 h (d27)
  concentration at 648 h: 10.2 ng/mL
Mean of 2 dogs, 696 h (d29)
  concentration at 696 h: 11.3 ng/mL
Mean of 2 dogs, 864 h (d36)
  concentration at 864 h: 6.89 ng/mL
Mean of 2 dogs, 1032 h (d43)
  concentration at 1032 h: 5.19 ng/mL
Mean of 2 dogs, 1200 h (d50)
  concentration at 1200 h: 3.33 ng/mL
Mean of 2 dogs, 1368 h (d57)
  concentration at 1368 h: 3 ng/mL
Mean of 2 dogs, 1536 h (d64)
  concentration at 1536 h: 2.64 ng/mL
Mean of 2 dogs, 1704 h (d71)
  concentration at 1704 h: 2.16 ng/mL
Mean of 2 dogs, 1872 h (d78)
  concentration at 1872 h: 1.62 ng/mL
Mean of 2 dogs, 2040 h (d85)
  concentration at 2040 h: 1.8 ng/mL
Mean of 2 dogs, 2208 h (d92)
  concentration at 2208 h: 1.41 ng/mL
